Results on 7 compounds are retold here after ChEMBL document CHEMBL2146461, “Synthesis and antiplasmodial activity of new heteroaryl derivatives of 7-chloro-4-aminoquinoline” (Bioorg Med Chem, 2012).

The logP is the decadic logarithm of the partition coefficient of the neutral form, usually between octanol and water. What is called logD is lipophilicity at a set pH, counting ionised and neutral species. For orientation: pKa means the negative logarithm of the acid dissociation constant. A low value points to a stronger acid or weaker base.

Bounds are passed on as bounds.

In data set [1] the test system is Plasmodium falciparum. Put plainly: Antiplasmodial activity against chloroquine-resistant Plasmodium falciparum W2 infected in human red blood cells after 72 hrs by parasite lactate dehydrogenase assay. The class given is functional, organism-based. To be noted: W2, 72 h.
The nature of data set [2]: Cytotoxicity against human HMEC1 cells after 72 hrs by MTT assay. The class given is cell-based. The settings on record: HMEC-1, 72 h. (In general: Formazan colour is commonly taken as a measure of viable cells.)
The subject of data set [3] is Plasmodium falciparum. Put plainly: Ratio of chloroquine IC50 to compound IC50 for chloroquine-resistant Plasmodium falciparum W2. The class given is functional.
The nature of data set [4]: Inhibition of beta-hematin formation assessed as ratio of drug to haemin for 50% inhibition by BHIA assay. The class given is functional.
Data set [5] in a line: Resistance index, ratio of IC50 for chloroquine-resistant Plasmodium falciparum W2 to IC50 for chloroquine-sensitive Plasmodium falciparum D10. The class given is functional.
Data set [6] in a line: Lipophilicity, log P of the compound at pH 7.4. To be noted: buffer, read-out: logP. The class given is physicochemical.
The subject of data set [7] is Plasmodium falciparum. Put plainly: Ratio of chloroquine IC50 to compound IC50 for chloroquine-sensitive Plasmodium falciparum D10. The class given is functional.
A short description of data set [8]: Selectivity index, ratio of IC50 for human HMEC1 cells to IC50 for chloroquine-resistant Plasmodium falciparum W2. The class given is toxicity, cell-based. To be noted: read-out: Ratio IC50.
A short description of data set [9]: n-octanol-KCl distribution coefficient, log D of the compound at pH 7.4. The class given is physicochemical.
Data set [10] concerns Plasmodium falciparum. In words: Antiplasmodial activity against chloroquine-sensitive Plasmodium falciparum D10 infected in human red blood cells after 72 hrs by parasite lactate dehydrogenase assay. The class given is functional, organism-based. To be noted: D10, 72 h.
Data set [11] is described as follows: Dissociation constant, pKa of the compound. The class given is physicochemical.

Turning to `CN(C)c1ccc(-c2c[nH]c(CNc3ccnc4cc(Cl)ccc34)n2)cc1`, the IC50 in the data set on Plasmodium falciparum [1] turned out to be 0.0209 µM; in data set [2], 6.67 µM; in data set [4], 0.42 molar ratio; with Plasmodium falciparum [10] it was 0.0134 µM. For the same compound, the figures for the “Ratio IC50” value (in the data set on Plasmodium falciparum [3]; in data set [5]; in the data set with Plasmodium falciparum [7]) were 13.8, 1.6 and 0.82, respectively. Further, in [6], the lipophilicity (logP) worked out at 5.07. Moreover, the selectivity ratio in [8] is 320. Besides, in [9], the pH-dependent lipophilicity (logD) amounted to 4.75.
Take `Clc1ccc2c(NCc3nc(-c4ccccc4)co3)ccnc2c1`: the IC50 in the data set on Plasmodium falciparum [1] turned out to be 0.513 µM; in the data set on Plasmodium falciparum [10], 0.27 µM. Also, the “Ratio IC50” value in the data set with Plasmodium falciparum [3] came to 0.84; in data set [5] it was 1.9; in the data set with Plasmodium falciparum [7], 0.05. This compound displayed a pKa in data set [11] of 6.36. Further, the logP in data set [6] is 4.85. The compound further yielded a pH-dependent lipophilicity (logD) in data set [9] of 4.81.
For `Clc1ccc2c(NCc3nc(-c4ccccc4)cs3)ccnc2c1`, the figures for the IC50 in the data set on Plasmodium falciparum [1] and in the data set with Plasmodium falciparum [10] were 0.396 µM and 0.211 µM, respectively. In addition, the “Ratio IC50” value came out at 1.09 in the data set on Plasmodium falciparum [3], 1.9 in data set [5] and 0.07 in the data set with Plasmodium falciparum [7]. The compound also registered a pKa in [11] of 6.45. In addition, the logP in data set [6] was found to be 5.2. In data set [9], this compound yielded a log distribution coefficient (logD) of 5.15.
`Clc1ccc(-c2nc(CNc3ccnc4cc(Cl)ccc34)[nH]c2CN2CCCC2)cc1`: the IC50 in the data set with Plasmodium falciparum [1] turned out to be 0.0272 µM; in data set [2], 2.06 µM; in the data set on Plasmodium falciparum [10], 0.0055 µM. Moreover, the results for the “Ratio IC50” value (in the data set with Plasmodium falciparum [3]; in data set [5]; with Plasmodium falciparum [7]) were 10.62, 4.9 and 2, respectively. Moreover, the logP in [6] was 6.96. Moreover, the selectivity ratio in data set [8] is 76. This compound returned a logD in data set [9] of 4.63.
Take `Fc1ccc(-c2c[nH]c(CNc3ccnc4cc(Cl)ccc34)n2)cc1`: the results for the IC50 (in the data set with Plasmodium falciparum [1]; in data set [2]; with Plasmodium falciparum [10]) were 0.0824 µM, 9.92 µM and 0.0521 µM, respectively. Also, the “Ratio IC50” value with Plasmodium falciparum [3] amounted to 5.05; in [5], 1.6; with Plasmodium falciparum [7], 0.28. In addition, in [6], the logP was 5.31. Also, the selectivity ratio in [8] stood at 120. For the same compound, in data set [9], the logD came to 4.93.
As to `Clc1ccc2c(NCc3ccc(CN4CCCC4)s3)ccnc2c1`, the IC50 with Plasmodium falciparum [1] amounted to 0.0263 µM; in data set [2], 24.2 µM; in data set [4], 1.08 molar ratio; in the data set with Plasmodium falciparum [10], 0.0125 µM. Besides, the entries for the “Ratio IC50” value (in the data set with Plasmodium falciparum [3]; in data set [5]; with Plasmodium falciparum [7]) were 16.43, 2.1 and 1.11, respectively. In data set [6], the lipophilicity (logP) turned out to be 4.42. In addition, the selectivity ratio in data set [8] came to 921. The same compound gave a log distribution coefficient (logD) in data set [9] of 2.77.
On to `CCN(CC)CCCC(C)Nc1ccnc2cc(Cl)ccc12` (stereo unspecified) [CHLOROQUINE], for which the IC50 was above 38 µM in data set [2] and 1.94 molar ratio in data set [4].
